Laboratory results: patent US5801017A, “Production of recombinant factor Xa inhibitor of leech Hirudo medicinalis” (Bio-Technology General Corp., priority 1994, dated 1998)
Where “and” joins values, the source holds several entries; their conditions need not be identical. Equal entries are not always repeated. Where two headings read alike, the source gives them in different places.

Tests used:
FXa = test: chromogenic FXa inhibitory activity assay (hydrolysis of CHG); format: biochemical, bovine
Description: Increasing amounts of FXaI purified on Mono-Q were preincubated for 3 minutes with 2 pmol bovine FXa in a 1 ml cuvette. The initial rate of hydrolysis of the substrate CHG was monitored at 405 nm (see Example 2). Fraction 47 was the peak fraction of a particular purification experiment.
The assay of FXa inhibitory activity is based on the inhibition of the FXa-mediated hydrolysis of the chromogenic substrate methoxycarbonyl-D-cyclohexylglycyl-glycyl-arginyl p-nitroanilide (CHG) as described below.
The appropriate substrate concentration was determined from the molar absorbance which is 8210 at 342 nm. The reaction mixture contains 50 mM Tris-HCl pH 8.2, 5 mM CaCl2, 200 mM NaCl, 0.1% PEG, 40 μM substrate, and approximately 2 nM FXa. The FXa concentration is determined more precisely from the initial (first 20 seconds) rate of CHG hydrolysis at 40 μM in the absence of inhibitor based on the kinetic parameters mentioned above.
Inhibition of the increase in absorbance may be observed in the presence of the FXa inhibitory activity of an FXa inhibitor such as FXaI of the present invention. The inhibitor concentration is the difference in absorbance between the reaction in the presence and absence of inhibitor multiplied by the FXa concentration.
This determination assumes the formation of a 1:1 enzyme-inhibitor complex, and further assumes that the dissociation constant is low enough (i.e., tight binding) to enable essentially total binding of the inhibitor (FXaI) to the enzyme (FXa). In fact, the saturation shape of the dose-response curve (FIG. 3) provides evidence that a finite and not negligible dissociation of the inhibitor-enzyme complex occurs under these conditions. The dose response curve is represented by the degree of inhibition versus FXaI concentration and is further described in Section 5.2.
The degree of dissociation of the FXa-FXaI complex is characterized by the inhibition constant (Ki) and may be determined from the inhibited velocity of the hydrolysis of the chromogenic substrate CHG. […] The Ki of naturally occurring FXa in the chromogenic assay is about 9 nM.
The determination of inhibitor concentration determined by the above method is therefore probably underestimated. It was found useful to define the FXaI concentration as the protein concentration (IC50) required to obtain a constant degree of inhibition, usually 50% and to define the amount causing 50% inhibition under these reaction conditions to be 1 milliunit (mu) or 1 pmol. IC50 is generally higher than Ki, and depending on the type of inhibition, can be shown to depend variously on substrate concentration, Ki, Km and other factors (Segel, I. (1974) "Enzyme Kinetics", Wiley Interscience). In fact, the range of values of IC50 was determined to be about 10-20 nM.
The FXaI activity assay used to determine concentration during purification and characterization was performed in an Elisa Titertek Twin Reader, Type 380 (EF LAB). The final activity measurement of purified protein was also performed in a Phillips (model PU 8720) UV/Vis scanning spectrophotometer.

[1] = molecular target: FXa in a prothrombinase complex; test: FXa inhibitory activity in the prothrombinase complex (thrombin generation); format: biochemical
Description: The inhibitory activity of FXaI may also be assayed by its effect on FXa in a prothrombinase complex. The phospholipid used was rabbit brain cephalin (Sigma). The contents of one vial, suspended in 1 ml 0.15M NaCl were diluted 1:40 in the reaction mixture, i.e. 2.5 μl/100 μl. The concentrations of the other components were: FXa 250 pM, prothrombin 2.67 μM, FVa 4.2 nM and Ca^++ 1 mM in 20 mM Tris-HCl pH 7.4/150 mM NaCl/0.1% polyethylene glycol 6000. Following 10 minutes of preincubation at 37° C., the reaction was initiated by the addition of prothrombin. Aliquots were removed at various time intervals. The reaction was stopped by 10 mM EDTA and aliquots were kept on ice until assayed. The inhibition of FXa by a FXa inhibitor (e.g. FXaI of the present invention) was observed as the effect of FXaI on the generation of thrombin from prothrombin at 37° C. The amount of thrombin generated was assayed using 80 μg of the synthetic thrombin p-nitroanilide substrate S-2238 (KabiVitrum, Sweden) at 23° C.

Plasmin = test: inhibition of plasmin (S2251); format: biochemical; settings: substrate S2251
Description: (§1) Inhibition of bovine trypsin by naturally occurring FXaI was calculated following the classical dose response method. Ki values were obtained by plotting the percentage of activity of FXaI (determined by the calorimetric assay described below) against the ratio of the concentrations of inhibitor and enzyme. The calorimetric assay was performed using 80 μM Chromozyme TH (Pentapharm, Switzerland) as substrate in 10 mM Tris-HCl, 10 mM Hepes (pH 7.8), 100 mM NaCl, 0.1% PEG 6000 at 25° C. in the presence of 3.83 or 4.27 nM bovine trypsin. Inhibitor and enzyme were preincubated for 10 min at 25° C. before adding the substrate.
(§2) Plasmin and thrombin were not inhibited by naturally occurring FXaI in a similar assay as that for trypsin. In the case of thrombin, the substrate used was the same as that used for trypsin; in the case of plasmin, S2251 was used as substrate.

thrombin [2] = test: inhibition of thrombin (Chromozyme TH); format: biochemical; settings: substrate Chromozyme TH
Description: as §1, §2

[3] = pharmacokinetic study in mice, ex vivo APTT; parameters: species or system Female Balb/c mice; settings: for Mean APTT: ex vivo, i.v. 5.25 μg/mouse
Description: The clearance of FXaI from the blood of female mice was monitored over a period of 30 minutes by assessing the ex vivo APTT (see FIG. 4) at the time points indicated. The amount of FXaI is expressed as μg FXaI [Macart and Gerbaut, Clin. Chim. Acta 122:93-101 (1982)], determined from a calibration curve consisting of in vitro APTT time versus inhibitor concentration as shown in FIG. 5B.
A preliminary pharmacokinetic experiment was performed in order to assess the clearance rate of FXaI from the circulatory system. Female Balb/c mice (20-25 gm body weight) were injected intravenously with purified FXaI (isoform A; 5.25 μg protein/mouse in 0.2 ml saline). Blood samples were drawn into 1/10 v/v 3.8% citrate at 1, 3, 10 and 30 min after injection. It was possible to obtain only one blood sample from each mouse and therefore each timepoint is from a different mouse. The plasma was then separated and assayed for APTT. The concentration of FXaI was calculated from a calibration curve of APTT versus FXaI concentration which was constructed in vitro by adding various amounts of FXaI to a plasma pool from untreated mice FIG. 5B.

thrombin [4] = test: thrombin inhibition assay according to Lottenberg et al.; format: biochemical
Description: The refolded and dialyzed protein so obtained was assayed for FXa inhibitory activity by the biochemical chromogenic assay described in Example 2. The results are shown in Table 6 as milliunits per mg protein (mu/mg). The amount of protein causing 50% inhibition in an assay mixture containing 2 nM FXa is defined as 1 mu. In addition, the refolded protein was also tested for its inhibitory effect on thrombin, another proteolytic enzyme of the coagulation cascade, which was assayed according to Lottenberg et al. Methods Enzymol. 80:341-361 (1981).

plasma = test: APTT doubling by recombinant mature FXaI; format: biochemical
Description: The inhibitory activity of FXaI was also assayed as the increase of the activated partial thromboplastin time (APTT) essentially as described in Spaethe, Haemostasis, AHS/Deutschland GmbH, Munich (1984), using as reagent Actin FS (Dade), which contains ellagic acid for activation of Factors XII and Factor XI, and soy bean phospholipid. Under these conditions, and in the presence of 20 mM CaCl2, only the intrinsic pathway of coagulation is activated.

Q: Which “Inhibitory activity (specific activity), FXa” value (FXa; 1 mu = amount causing 50% inhibition with 2 nM FXa) does the source give for “naturally occurring FXaI: FXa inhibitor protein isolated from dilute leech saliva (DLS) of the leech Hirudo medicinalis; 14 kD monomer” here?
A: 507 mu/mg

Q: What about the IC50 (FXa; chromogenic assay, read-out: IC50 (protein concentration for 50% inhibition)) of the same molecule?
A: 10 to 20 nM

Q: What about the Ki ([1]; 50 pM FXa, 1.35 μM prothrombin, read-out: Ki in prothrombinase complex assay, modified protocol) of the same molecule?
A: 0.12 nM

Q: And the IC50 ([1]; 250 pM FXa, 2.67 μM prothrombin)?
A: 0.19 nM

Q: And the Ki ([1]; 250 pM FXa, 2.67 μM prothrombin, read-out: Ki in prothrombinase complex assay)?
A: 0.072 nM

Q: And the inhibition of plasmin (Plasmin)?
A: not inhibited

Q: And the inhibition of thrombin (thrombin [2])?
A: not inhibited

Q: And the “FXaI calculated from the calibration curve” value (shortened to “FXaI calculated”) ([3]; 1 min post-injection)?
A: 0.3150 µg

Q: What about the “FXaI calculated” value ([3]; 3 min post-injection) of the same molecule?
A: 0.243 µg and 0.174 µg

Q: What about the “FXaI calculated” value ([3]; 10 min post-injection) of the same molecule?
A: 0.1245 µg

Q: And the “FXaI calculated” value ([3]; 30 min post-injection)?
A: 0 µg

Q: And the “Mean APTT” value ([3]; 1 min post-injection)?
A: 91 s

Q: What about the “Mean APTT” value ([3]; 3 min post-injection) of the same molecule?
A: 79 s and 66 s

Q: What about the “Mean APTT” value ([3]; 10 min post-injection) of the same molecule?
A: 55 s

Q: What about the “Mean APTT” value ([3]; 30 min post-injection) of the same molecule?
A: 29 s and 30 s

Q: What about the “half life of plasma inhibitor activity” value ([3]; mice, intravenous, 5.25 μg protein/mouse) of the same molecule?
A: about 7.5 min

Q: What about the “Inhibitory activity (specific activity), Thrombin” value (thrombin [4]) of the same molecule?
A: < 1 mu/mg

B1: mature FXaI: recombinant FXaI obtained by enterokinase cleavage of the pFSHI-6 prepeptide, about 15 kD (protein)
chain: YEVIYVDDPCEDSDCEDGNKCSPVTNECDCSPVRCRLHCNFYVKDSNGCETCACEPKCKHKNCPTGHHCNKLTNKCELKKQRRMG
Q: Which “FXa inhibitory specific activity” value (FXa; after removal of the extension peptide from the cleavage solution by chromatography) does the source give for B1 here?
A: ≤ 8000 mu/mg protein

Q: And the “FXa inhibitory specific activity” value (FXa; following cleavage with enterokinase)?
A: 4000-4500 mu/mg protein

Q: And the “concentration causing doubling of the APTT” value (plasma)?
A: 12.2 µg/mL
